Measurements as given in US10344054B2, “Angiotensin-1-receptor antagonists” (Ferring B.V., priority 2016, dated 2019).
Like-named read-outs stand apart in the source and are kept apart here. Residues, ends and D or L forms follow the SMILES beside them.

Experiments:
[1] = target: T1, hAT1R (Homo sapiens, UniProt P30556); experiment: FLIPR calcium flux assay, Part I: agonist activity; format: cell-based; conditions: read-out: hAT1R Agonist Efficacy Agonist (%) Ave
T1 sequence (P30556 1-359): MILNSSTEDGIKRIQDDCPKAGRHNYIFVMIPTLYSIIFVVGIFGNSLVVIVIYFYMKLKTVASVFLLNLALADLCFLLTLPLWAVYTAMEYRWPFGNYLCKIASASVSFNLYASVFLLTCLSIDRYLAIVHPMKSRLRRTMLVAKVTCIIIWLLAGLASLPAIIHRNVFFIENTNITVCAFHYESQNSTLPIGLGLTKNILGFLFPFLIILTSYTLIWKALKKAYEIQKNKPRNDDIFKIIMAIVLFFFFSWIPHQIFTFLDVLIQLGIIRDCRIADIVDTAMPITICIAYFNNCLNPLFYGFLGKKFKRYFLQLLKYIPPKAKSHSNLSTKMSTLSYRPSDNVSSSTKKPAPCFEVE

[2] = target: T1, hAT1R; experiment: FLIPR calcium flux assay, Part II: antagonist activity against Angiotensin II; format: cell-based; conditions: for Emax: read-out: hAT1R Antagonist Efficacy Antag (%) Ave; as to hAT1R Antagonist Efficacy Antag (%) Ave: Angiotensin II 10 nM final concentration
[3] = ChanTest hAT1R stable cells, % MPE, percent of the maximal possible effect
[4] = read-out: hAT1R Antagonist IC50 Ave

Structure (SMILES)	Emax [1, 3]	Emax [2]	IC50 [2, 4]	Emax [1]	IC50 [2]
CNCC(=O)N[C@@H](CCCNC(=N)N)C(=O)N[C@H](C(=O)N[C@@H](Cc1ccc(O)c(Cl)c1)C(=O)N[C@H](C(=O)N[C@@H](Cc1c[nH]cn1)C(=O)N1CCC[C@H]1C(=O)N[C@H](Cc1ccccc1Cl)C(=O)O)C(C)C)C(C)C [Compound 28, Sar-Arg-Val-Tyr(3-Cl)-Val-His-Pro-(D-Phe(2-Cl))—OH] (HELM PEPTIDE1{[Sar].R.V.[O=C([C@H](Cc1ccc(O)c(Cl)c1)N[*:1])[*:2]].V.H.P.[O=C(O)[C@@H](Cc1ccccc1Cl)N[*:1]]}$$$$V2.0)	5%	99%	0.0122 µM		
CNCC(=O)N[C@@H](CCCNC(=N)N)C(=O)N[C@H](C(=O)N[C@@H](Cc1ccc(O)cc1)C(=O)N[C@H](C(=O)N[C@@H](Cc1c[nH]cn1)C(=O)N1CCC[C@H]1C(=O)N[C@H](Cc1cccc2ccccc12)C(=O)O)[C@@H](C)OC)C(C)C [Compound 17, Sar-Arg-Val-Tyr-Thr(Me)-His-Pro-(D-1Nal)-OH]		100%		4%	0.006 µM
CNCC(=O)N[C@@H](CCCNC(=N)N)C(=O)N[C@H](C(=O)N[C@@H](Cc1ccc(O)cc1)C(=O)N[C@@H](CCCCN)C(=O)N[C@@H](Cc1c[nH]cn1)C(=O)N1CCC[C@H]1C(=O)N[C@H](Cc1cccc2ccccc12)C(=O)O)C(C)C [Compound 2, Sar-Arg-Val-Tyr-Lys-His-Pro-(D-1Nal)-OH] (HELM PEPTIDE1{[Sar].R.V.Y.K.H.P.[O=C(O)[C@@H](Cc1cccc2ccccc12)N[*:1]]}$$$$V2.0)	1%	100%	0.0165 µM		
CNCC(=O)N[C@@H](CCCNC(=N)N)C(=O)N[C@H](C(=O)N[C@@H](Cc1ccc(O)cc1)C(=O)N[C@H](C(=O)N[C@@H](Cc1c[nH]cn1)C(=O)N1CCC[C@H]1C(=O)N[C@H](Cc1ccccc1Cl)C(=O)O)C1CCCCC1)C(C)C [Compound 19, Sar-Arg-Val-Tyr-Chg-His-Pro-(D-Phe(2-Cl))—OH] (HELM PEPTIDE1{[Sar].R.V.Y.[O=C([C@@H](N[*:1])C1CCCCC1)[*:2]].H.P.[O=C(O)[C@@H](Cc1ccccc1Cl)N[*:1]]}$$$$V2.0)	8%	99%	0.0141 µM		
CC(C)[C@H](NC(=O)[C@H](CCCNC(=N)N)NC(=O)CNC[C@H](O)[C@@H](O)[C@H](O)[C@H](O)CO)C(=O)N[C@@H](Cc1ccc(O)cc1)C(=O)N[C@H](C(=O)N[C@@H](Cc1c[nH]cn1)C(=O)N1CCC[C@H]1C(=O)N[C@H](Cc1ccccc1-c1ccccc1)C(=O)O)C(C)C [Compound 39, Glac-Arg-Val-Tyr-Val-His-Pro-(D-Phe(2-Ph))—OH] (HELM PEPTIDE1{[O=C(CNC[C@H](O)[C@@H](O)[C@H](O)[C@H](O)CO)[*:2]].R.V.Y.V.H.P.[O=C(O)[C@@H](Cc1ccccc1-c1ccccc1)N[*:1]]}$$$$V2.0)	8%	101%	0.0267 µM		
CC[C@H](C)[C@H](NC(=O)[C@H](Cc1ccc(O)cc1)NC(=O)[C@@H](NC(=O)[C@H](CCCNC(=N)N)NC(=O)CNC)C(C)C)C(=O)N[C@@H](Cc1c[nH]cn1)C(=O)N1CCC[C@H]1C(=O)N[C@H](Cc1ccccc1)C(=O)O [Ref. Cpd. 2, Sar-Arg-Val-Tyr-Ile-His-Pro-D-Phe-OH, reference compound]	25%	99%	0.0143 µM		
CNCC(=O)N[C@@H](CCCNC(=N)N)C(=O)N[C@H](C(=O)N[C@@H](Cc1ccc(O)c(O)c1)C(=O)N[C@H](C(=O)N[C@@H](Cc1c[nH]cn1)C(=O)N1CCC[C@H]1C(=O)N[C@H](Cc1ccccc1Cl)C(=O)O)C(C)C)C(C)C [Compound 32, Sar-Arg-Val-DOPA-Val-His-Pro-(D-Phe(2-Cl))—OH] (HELM PEPTIDE1{[Sar].R.V.[O=C([C@H](Cc1ccc(O)c(O)c1)N[*:1])[*:2]].V.H.P.[O=C(O)[C@@H](Cc1ccccc1Cl)N[*:1]]}$$$$V2.0)	5%	99%	0.0241 µM		

More lines, main results first:

Emax [1, 3]	Emax [2]	IC50 [2, 4]	Structure (SMILES)	Emax [1]	IC50 [2]
3%	99%	0.005 µM	CNCC(=O)N[C@@H](CCCNC(=N)N)C(=O)N[C@H](C(=O)N[C@@H](Cc1ccc(O)cc1)C(=O)N[C@@H](Cc1ccsc1)C(=O)N[C@@H](Cc1c[nH]cn1)C(=O)N1CCC[C@H]1C(=O)N[C@H](Cc1ccccc1Cl)C(=O)O)C(C)C [Compound 22, Sar-Arg-Val-Tyr-(3-Thi)-His-Pro-(D-Phe(2-Cl))—OH] (HELM PEPTIDE1{[Sar].R.V.Y.[O=C([C@H](Cc1ccsc1)N[*:1])[*:2]].H.P.[O=C(O)[C@@H](Cc1ccccc1Cl)N[*:1]]}$$$$V2.0)		
3%	99%	0.0101 µM	CNCC(=O)N[C@@H](CCCNC(=N)N)C(=O)N[C@H](C(=O)N[C@@H](Cc1ccc(O)cc1)C(=O)N[C@H](C(=O)N[C@@H](Cc1c[nH]cn1)C(=O)N1CCC[C@H]1C(=O)N[C@H](Cc1ccccc1Cl)C(=O)O)C1CCCC1)C(C)C [Compound 18, Sar-Arg-Val-Tyr-Cpg-His-Pro-(D-Phe(2-Cl))—OH] (HELM PEPTIDE1{[Sar].R.V.Y.[O=C([C@@H](N[*:1])C1CCCC1)[*:2]].H.P.[O=C(O)[C@@H](Cc1ccccc1Cl)N[*:1]]}$$$$V2.0)		
4%	99%	0.007 µM	CNCC(=O)N[C@@H](CCCNC(=N)N)C(=O)N[C@H](C(=O)N[C@@H](Cc1ccc(O)cc1)C(=O)N[C@@H](Cc1cscn1)C(=O)N[C@@H](Cc1c[nH]cn1)C(=O)N1CCC[C@H]1C(=O)N[C@H](Cc1ccccc1Cl)C(=O)O)C(C)C [Compound 24, Sar-Arg-Val-Tyr-(Ala(4-Thz))-His-Pro-(D-Phe(2-Cl))—OH] (HELM PEPTIDE1{[Sar].R.V.Y.[O=C([C@H](Cc1cscn1)N[*:1])[*:2]].H.P.[O=C(O)[C@@H](Cc1ccccc1Cl)N[*:1]]}$$$$V2.0)		
12%	99%	0.0064 µM	CNCC(=O)N[C@@H](CCCNC(=N)N)C(=O)N[C@H](C(=O)N[C@@H](Cc1ccc(O)cc1)C(=O)N[C@H](C(=O)N[C@@H](Cc1c[nH]cn1)C(=O)N1CCC[C@H]1C(=O)N[C@H](Cc1ccc(Cl)cc1Cl)C(=O)O)C(C)C)C(C)C [Compound 7, Sar-Arg-Val-Tyr-Val-His-Pro-(D-Phe(2,4-diCl))—OH] (HELM PEPTIDE1{[Sar].R.V.Y.V.H.P.[O=C(O)[C@@H](Cc1ccc(Cl)cc1Cl)N[*:1]]}$$$$V2.0)		
